Reference: US20120064135A1, “Benzoyl Peroxide Composition, Methods for Making Same, and Pharmaceutical or Cosmetic Formulations Comprising Same, and Uses Thereof” (Norac Pharma, priority 2010, published 2012)

Columns and labels:
[1] = Stability of tazarotene with BP-CB or BPO in polyacrylic acid gel, stored at 30° C., HPLC peak area; assay type: physicochemical; conditions: after 834 h at 30° C.; with tazarotene in polyacrylic acid (PAA) gel
Protocol: These stability studies are set up to examine BP-CB/BPO with various APIs in aqueous gel formulations. In one study, tazarotene is used as the API. Tazarotene and BP-CB or BPO are placed into a polyacrylic acid (PAA) gel in vials and stored at 30° C. The vials are analyzed by HPLC and the area from the tazarotene peak is monitored. […] These values are compared on the area from the To results.
(§1) BPO Study—Polyacrylic acid gel is prepared by stirring polyacrylic acid (2.5 g) in deionized water (100 mL) at 50° C. for 2 h. The gel is allowed to cool to ambient temperature. The gel (500 mg) is weighed out into each of the 4-dram vials. Into the same vials is placed hydrous benzoyl peroxide (390 mg, 74.6% by wt) and tazarotene (375 mg). The contents are mixed thoroughly then the vials are stored at 30° C.
as §1, with “BP-CB” for “BPO”, “BP-CB (447” for “hydrous benzoyl peroxide (390”, “65% BPO” for “74.6%”
Analysis—At certain time points, the vials are analyzed by HPLC. […] For To, a vial is removed and analyzed before the samples are heated to 30° C. […]

[2] = Stability of clindamycin hydrochloride mixed with BP-CB or BPO, stored in vials at 30° C., HPLC peak area; assay type: physicochemical; conditions: after 216 h at 30° C.
Protocol: The stability of the benzoyl peroxide (BP-CB) formulation of the present invention is compared with benzoyl peroxide (BPO) in non-invention drug formulations. In one study, clindamycin hydrochloride is used as the API. Clindamycin hydrochloride and BP-CB or BPO are placed in vials and stored at 30° C. The vials are analyzed by HPLC and the area from the clindamycin hydrochloride peak is monitored. […] These values are in comparison to the area from the T0 results. BPO Study—Into clear one dram vials is placed hydrous benzoyl peroxide (26 mg, 75.0% by wt) and clindamycin hydrochloride (20 mg). The contents are mixed thoroughly. Then the vials are stored at 30° C. BP-CB Study—Into clear one dram vials is placed BP-CB (30 mg, 65% BPO by wt) and clindamycin hydrochloride (20 mg). The contents are mixed thoroughly then the vials are stored at 30° C. Analysis—At certain time points, the vials are analyzed by HPLC. Prior to analysis, a mixture of methanol and acetonitrile (10 mL total, 1:1 by volume) is added to dissolve the contents of the vial. The solution is used for HPLC analysis. For T0, a vial is removed and analyzed before the samples are heated to 30° C. • To prepare 1 L solution, transfer 1000 mL DI water into a suitable reservoir. Add 6.81 g of KH2PO4, and then adjust pH to 3.1 with H3PO4. Mix well. Degas solution thoroughly before use. [table]

[3] = cited from earlier work

decrease of HPLC area of the tazarotene peak compared to T0 [1] [%]	decrease of HPLC area of the clindamycin hydrochloride peak in comparison to T0 [2] [%]	Compound	pKa [3]
88	87.0	O=C(OOC(=O)c1ccccc1)c1ccccc1 [BPO, benzoyl peroxide]	–
–	–	CC1=C(/C=C/C(C)=C/C=C/C(C)=C/C(=O)O)C(C)(C)CCC1 [tretinoin]	3.8
